From EP0182317A2, “Antineoplastic agent” (priority 1984, dated 1986)

How the values were obtained:
Hela S3 cells = experiment: Inhibition of proliferation of incubated Hela S3 cells; format: cell-based; settings: cells counted 3 days after addition of sample
Experimental: Effect of inhibiting the proliferation of incubated Hela S3 cells:
Hela S3 cells were placed on a culture medium (NEM containing 10 % of calf serum in a plastic dish. After 2 days, an organoselenium compound was added thereto. After containing the culture for additional 3 days, the number of the cells was counted. The proliferation inhibition rate was calculated according to the following formula: Inhibition rate (%) = 100 x (B-A) / (B-C) in which A is the final number of the cells counted on the third day after addition of the test sample, B is the final number of the cells in a sample- free control and C is the number of the cells counted immediately after the addition of the test sample. The value of IC50 (50 % inhibitory concentration) was determined from a graph showing the relationship between the concentration of the sample and the inhibition rate.

Ehrlich carcinoma = experiment: Antineoplastic effect on Ehrlich carcinoma in mice (survival, T/C percent); format: in vivo, male ICR mouse; settings: in the abdomen once a day for 7 days
Experimental: Antineoplastic effect on Ehrlich carcinoma:
(§1) About 10^6/0.2 ml of Ehrlich carcinoma cells were placed in an abdomen of each male ICR mouse of 5 weeks old. On the next day the administration of the test sample in the abdomen was started. The test sample was given once a day for 7 days. For an untreated group, a physiological saline solution was given in the same manner as above. […] The T/C percent (T/C x 100) was determined from the average survival periods (days) of the treated group and control group. Further, 50 % lethal dose (LD50) was determined from the number of the mice which died of toxicity of the test samples administered.

[1] = 50 % lethal dose from toxic deaths in the Ehrlich carcinoma experiment; format: in vivo, male ICR mouse; settings: mice bearing Ehrlich carcinoma, in the abdomen once a day for 7 days; 43200 min
Experimental: as §1

[2] = tested on: Salmonella typhimurium TA-98; experiment: Antimutagenic properties by Ames method with benzo[a]pyrene as mutagen; format: cell-based; settings: for Number of colonies: B(a)P, S-9 mix; for inhibition rate: inhibition of the mutagenic effect of B(a)P
Experimental: The experiment was carried out by Ames method using Salmonella typhimurium TA-98 (hereinafter referred to as TA-98) as the test microorganism and benzo[a]pyrene (hereinafter referred to as B(a)P) as the mutagen.
0.1 ml of a solution containing […] of B(a)P and a suitable amount of a compound of the present invention was added to 0.5 ml of S-9 mix and 0.1 ml of a TA-98 suspension. The mixture was incubated at 37°C for 20 min. 2 ml of soft agar was added thereto, mixed well and then spread evenly on a glucose minimum agar medium plate. After the incubation at 37°C for 48 h, the number of colonies formed by the back mutation was counted.
The number of the colonies formed when neither B(a)P nor the compound of the present invention was used was employed as the background.
The antimutagenic properties was shown as the rate of inhibition of the mutagenic effect according to the following formula: [formula]

In the case of `O=[Se](Cl)Cl.c1ccncc1` [Selenium oxychloride·pyridine (1:1) complex], the IC50 (Hela S3 cells) is reported as 0.59 µg/mL.

In the case of “selenium oxychloride·pyridine complex [Compound 4]”, the “Antineoplastic effect (T/C percent)” value (Ehrlich carcinoma; dose 2.0 mg/kg, observation period 30 days) is reported as 178.6%, the “Antineoplastic effect (T/C percent)” value (Ehrlich carcinoma; dose 2.0 mg/kg, observation period 60 days) is reported as 218% and the “Antineoplastic effect (T/C percent)” value (Ehrlich carcinoma; dose 4.0 mg/kg, observation period 30 days) is reported as 188.1%. For the same molecule, the “Antineoplastic effect (T/C percent)” value (Ehrlich carcinoma; dose 4.0 mg/kg, observation period 60 days) was 270%, the “Antineoplastic effect (T/C percent)” value (Ehrlich carcinoma; dose 8.0 mg/kg, observation period 30 days) was 200.8% and the “Antineoplastic effect (T/C percent)” value (Ehrlich carcinoma; dose 8.0 mg/kg, observation period 60 days) was 297%. The LD50 [1] was 8 - 16 mg/kg/day x7, the Number of colonies ([2]; dose 0.5 µg/plate) was 213 and the inhibition rate ([2]; dose 0.5 µg/plate) was 23.0%. The Number of colonies ([2]; dose 1 µg/plate) was 192, the inhibition rate ([2]; dose 1 µg/plate) was 32.8% and the Number of colonies ([2]; dose 5 µg/plate) was 180. It also gave an inhibition rate ([2]; dose 5 µg/plate) of 37.7%, a Number of colonies ([2]; dose 10 µg/plate) of 144 and an inhibition rate ([2]; dose 10 µg/plate) of 52.5%. For the same molecule, the Number of colonies ([2]; dose 50 µg/plate) was 93, the inhibition rate ([2]; dose 50 µg/plate) was 73.4% and the Number of colonies ([2]; dose 100 µg/plate) was 87. It also gave an inhibition rate ([2]; dose 100 µg/plate) of 75.8%, a Number of colonies ([2]; dose 500 µg/plate) of 41 and an inhibition rate ([2]; dose 500 µg/plate) of 94.7%.
